“And” between values parts separate entries of the source, which are not always exact repeats. Identical values can stand only once. Toxic doses and inconclusive results are not listed. No stated cut-off is given here; in the data, active means T/C of 150% or more; inactive means T/C below 125%.
Tested on: L1210 leukemia ip in BDF1 mice, survival T/C
Assay: NCI In Vivo Anticancer Drug Screen. Data for tumor model L1210 Leukemia (intraperitoneal) in B6D2F1 (BDF1) mice
Conditions: endpoint: mean survival time, higher = longer survival
How it was run: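 Value reflects the ratio of survival in compound-treated mice to survival in vehicle-treated controls, with both groups carrying the same transplanted tumor.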

[1] = dose: 100.0 mg/kg/injection, schedule: Q01DX009 (ip), vehicle: Klucel (hydroxypropylcellulose) (HPC)
[2] = dose: 100.0 mg/kg/injection, schedule: Q04DX003 (ip), vehicle: Klucel (hydroxypropylcellulose) (HPC)
[3] = dose: 200.0 mg/kg/injection, schedule: Q01DX009 (ip), vehicle: Klucel (hydroxypropylcellulose) (HPC)
[4] = dose: 200.0 mg/kg/injection, schedule: Q04DX003 (ip), vehicle: Klucel (hydroxypropylcellulose) (HPC)
[5] = dose: 400.0 mg/kg/injection, schedule: Q01DX009 (ip), vehicle: Klucel (hydroxypropylcellulose) (HPC)
[6] = dose: 400.0 mg/kg/injection, schedule: Q04DX003 (ip), vehicle: Klucel (hydroxypropylcellulose) (HPC)
[7] = dose: 100.0 mg/kg/injection, schedule: Q04DX003 (ip), vehicle: other
[8] = dose: 200.0 mg/kg/injection, schedule: Q04DX003 (ip), vehicle: other
[9] = dose: 100.0 mg/kg/injection, schedule: Q04DX003 (ip), vehicle: saline
[10] = dose: 200.0 mg/kg/injection, schedule: Q04DX003 (ip), vehicle: saline
[11] = dose: 400.0 mg/kg/injection, schedule: Q04DX003 (ip), vehicle: saline
[12] = dose: 100.0 mg/kg/injection, schedule: Q01DX001 (ip), vehicle: carboxymethylcellulose (CMC)
[13] = dose: 200.0 mg/kg/injection, schedule: Q01DX001 (ip), vehicle: carboxymethylcellulose (CMC)
[14] = dose: 400.0 mg/kg/injection, schedule: Q01DX001 (ip), vehicle: carboxymethylcellulose (CMC)
[15] = dose: 100.0 mg/kg/injection, schedule: Q04DX002 (ip), vehicle: Klucel (hydroxypropylcellulose) (HPC)
[16] = dose: 200.0 mg/kg/injection, schedule: Q04DX002 (ip), vehicle: Klucel (hydroxypropylcellulose) (HPC)
[17] = dose: 100.0 mg/kg/injection, schedule: Q01DX001 (ip), vehicle: Klucel (hydroxypropylcellulose) (HPC)
[18] = dose: 200.0 mg/kg/injection, schedule: Q01DX001 (ip), vehicle: Klucel (hydroxypropylcellulose) (HPC)
[19] = dose: 400.0 mg/kg/injection, schedule: Q01DX001 (ip), vehicle: Klucel (hydroxypropylcellulose) (HPC)

Measured: T/C

O=C(Oc1c(Cl)c(Cl)c(Cl)c(Cl)c1Cl)c1cc(Cl)cc(Cl)c1Br
inactive: dose: 25.0 mg/kg/injection, schedule: Q04DX003 (ip), vehicle: saline with Tween-80 105 % of control | dose: 50.0 mg/kg/injection, schedule: Q04DX003 (ip), vehicle: saline with Tween-80 102 % of control | dose: 100.0 mg/kg/injection, schedule: Q04DX003 (ip), vehicle: saline with Tween-80 97 % of control and 91 % of control

O=C1C(C(O)c2ccccc2)SC(c2ccccc2)N1c1ccccc1 (stereo not given)
inactive: [1] 97 % of control | [2] 90 % of control | [3] 101 % of control | [4] 94 % of control | [5] 95 % of control | [6] 93 % of control

NC(=O)c1ccccn1
inactive: dose: 50.0 mg/kg/injection, schedule: Q01DX009 (ip), vehicle: Klucel (hydroxypropylcellulose) (HPC) 98 % of control | dose: 50.0 mg/kg/injection, schedule: Q04DX003 (ip), vehicle: Klucel (hydroxypropylcellulose) (HPC) 100 % of control | [1] 95 % of control | [2] 102 % of control | [3] 87 % of control | [4] 101 % of control and 102 % of control

COC1=C(Nc2ccc(C)cc2)C(=O)C(OC)=C(Nc2ccc(C)cc2)C1=O
inactive: dose: 50.0 mg/kg/injection, schedule: Q01DX001 (ip), vehicle: saline 98 % of control | dose: 100.0 mg/kg/injection, schedule: Q01DX001 (ip), vehicle: saline 93 % of control | dose: 200.0 mg/kg/injection, schedule: Q01DX001 (ip), vehicle: saline 95 % of control

C=CCNc1ccc(C)cc1
inactive: dose: 50.0 mg/kg/injection, schedule: Q01DX009 (ip), vehicle: other 92 % of control | dose: 100.0 mg/kg/injection, schedule: Q01DX009 (ip), vehicle: other 104 % of control | [7] 100 % of control | [8] 109 % of control

O=NN(C(=O)c1ccccc1)C(c1ccccc1)c1ccc(Cl)cc1 (stereo not given)
inactive: dose: 45.0 mg/kg/injection, schedule: Q04DX002 (ip), vehicle: Klucel (hydroxypropylcellulose) (HPC) 91 % of control | dose: 90.0 mg/kg/injection, schedule: Q04DX002 (ip), vehicle: Klucel (hydroxypropylcellulose) (HPC) 91 % of control | dose: 180.0 mg/kg/injection, schedule: Q04DX002 (ip), vehicle: Klucel (hydroxypropylcellulose) (HPC) 97 % of control

C[N+](C)(C)CCC[N+]1(C)Cc2ccccc2C1
inactive: dose: 55.0 mg/kg/injection, schedule: Q01DX Z (ip), vehicle: saline 91 % of control | dose: 83.0 mg/kg/injection, schedule: Q01DX Z (ip), vehicle: saline 97 % of control | dose: 125.0 mg/kg/injection, schedule: Q01DX Z (ip), vehicle: saline 96 % of control

CC(C)CC(C)(O)C(N)=O (stereo not given)
inactive: [9] 102 % of control | [10] 102 % of control | [11] 91 % of control

COC(=O)C1(CCOC(C)=O)CCCCC12OCCO2 (stereo not given)
inactive: [12] 94 % of control | [13] 100 % of control | [14] 91 % of control

c1ccc2c3c(ccc2c1)OCN(C12CC4CC(CC(C4)C1)C2)C3
inactive: [9] 98 % of control | [10] 105 % of control | [11] 89 % of control

CCCCCCCCCCCC(=O)SCCSC(=O)CCCCCCCCCCC
inactive: dose: 100.0 mg/kg/injection, schedule: Q04DX002 (ip), vehicle: other 94 % of control and 104 % of control | [7] 86 % of control and 89 % of control | dose: 200.0 mg/kg/injection, schedule: Q04DX002 (ip), vehicle: other 113 % of control and 90 % of control | [8] 96 % of control and 89 % of control | dose: 400.0 mg/kg/injection, schedule: Q04DX002 (ip), vehicle: other 103 % of control and 109 % of control | dose: 400.0 mg/kg/injection, schedule: Q04DX003 (ip), vehicle: other 89 % of control and 92 % of control

CCCCCCCCCCCCCCCCCCNC(=O)Nc1ccc(C)c(Cl)c1
inactive: [15] 90 % of control | [16] 93 % of control

Cc1ccc(CCCC(=O)O)c(C)c1
inactive: dose: 100.0 mg/kg/injection, schedule: Q01DX009 (ip), vehicle: saline with Tween-80 105 % of control | dose: 200.0 mg/kg/injection, schedule: Q01DX009 (ip), vehicle: saline with Tween-80 92 % of control | dose: 400.0 mg/kg/injection, schedule: Q01DX009 (ip), vehicle: saline with Tween-80 96 % of control

O=C(O)/C(=C\CCCC/C=C(\CCO)C(=O)O)CCO
inactive: [1] 102 % of control | [2] 94 % of control | [3] 99 % of control | [4] 102 % of control | [5] 102 % of control | [6] 96 % of control

CCOc1ccccc1-n1c(-c2ccc([N+](=O)[O-])cc2)csc1=NC(=O)c1cccc([N+](=O)[O-])c1
inactive: [17] 101 % of control | [1] 96 % of control and 100 % of control and 106 % of control | [15] 94 % of control and 98 % of control | [2] 101 % of control | [18] 101 % of control | [3] 93 % of control (2×) and 95 % of control | [16] 97 % of control and 98 % of control | [4] 95 % of control | [19] 98 % of control | [5] 95 % of control and 97 % of control (2×) | dose: 400.0 mg/kg/injection, schedule: Q04DX002 (ip), vehicle: Klucel (hydroxypropylcellulose) (HPC) 96 % of control and 97 % of control | [6] 93 % of control

O=[N+]([O-])c1ccc(C2N=NCCS2)cc1 (stereo not given)
inactive: [17] 98 % of control | [18] 104 % of control | [19] 95 % of control

O=[N+]([O-])c1cc(Cl)cc2c1-c1ccc(Cl)cc1/C2=N\O
inactive: [12] 103 % of control | [13] 103 % of control | [14] 103 % of control

Cc1ccc(C(C)C)c(OCCNC2=NCCN2)c1
inactive: dose: 6.25 mg/kg/injection, schedule: Q01DX009 (ip), vehicle: saline 97 % of control | dose: 6.25 mg/kg/injection, schedule: Q04DX003 (ip), vehicle: saline 97 % of control | dose: 12.5 mg/kg/injection, schedule: Q01DX009 (ip), vehicle: saline 104 % of control | dose: 12.5 mg/kg/injection, schedule: Q04DX003 (ip), vehicle: saline 92 % of control | dose: 25.0 mg/kg/injection, schedule: Q01DX009 (ip), vehicle: saline 97 % of control | dose: 25.0 mg/kg/injection, schedule: Q04DX003 (ip), vehicle: saline 97 % of control

c1ccc2cc(CCc3cc4ccccc4cn3)ncc2c1
inactive: [9] 105 % of control | [10] 94 % of control | [11] 87 % of control

[Cl][Sn]([Cl])([Cl])[Cl]
inactive: [9] 95 % of control

CN=C(NC)c1ccc(NC(=O)c2ccc(C(=O)Nc3ccc(C(=NC)NC)c(C)c3)cc2)cc1C
inactive: dose: 4.4 mg/kg/injection, schedule: Q01DX Z (ip), vehicle: carboxymethylcellulose (CMC) 98 % of control | dose: 6.6 mg/kg/injection, schedule: Q01DX Z (ip), vehicle: carboxymethylcellulose (CMC) 102 % of control | dose: 10.0 mg/kg/injection, schedule: Q01DX Z (ip), vehicle: carboxymethylcellulose (CMC) 100 % of control | dose: 15.0 mg/kg/injection, schedule: Q01DX Z (ip), vehicle: carboxymethylcellulose (CMC) 107 % of control and 108 % of control and 112 % of control | dose: 22.5 mg/kg/injection, schedule: Q01DX Z (ip), vehicle: carboxymethylcellulose (CMC) 111 % of control | dose: 30.0 mg/kg/injection, schedule: Q01DX Z (ip), vehicle: carboxymethylcellulose (CMC) 96 % of control | dose: 35.0 mg/kg/injection, schedule: Q01DX Z (ip), vehicle: carboxymethylcellulose (CMC) 100 % of control

COC(=O)c1cccc(F)c1C(=O)c1ccc2ccccc2c1
inactive: [2] 100 % of control | [4] 91 % of control | [6] 97 % of control

CCOC(=O)C1CCC(C(=O)OCC)N1Cc1ccccc1 (stereo not given)
inactive: dose: 100.0 mg/kg/injection, schedule: Q01DX009 (ip), vehicle: saline 101 % of control | dose: 200.0 mg/kg/injection, schedule: Q01DX009 (ip), vehicle: saline 104 % of control | dose: 400.0 mg/kg/injection, schedule: Q01DX009 (ip), vehicle: saline 108 % of control
